Source: US20230094952A1, “Method for Culturing Hematopoietic Stem Cells” (Sumitomo Pharma Co., Ltd., priority 2019, published 2023)

Test system: mouse long-term hematopoietic stem cells
Assay: Reproducibility and concentration dependence test: 1-week culture of sorted Hoxb5-tri-mCherry mouse long-term hematopoietic stem cells, flow cytometry
Assay type: cell-based
Conditions: day 7 of culture, n=2
Protocol: Mice with insertion of a nucleic acid sequence containing three copies of a gene encoding the fluorescent protein mCherry to the C terminus of the mouse endogenous HoxB5 gene (Hoxb5-tri-mCherry) were used (triple-mCherry Hoxb5 knock-in mice; Non Patent Literature 1). The mice were housed under environmental conditions such that the room temperature and the humidity were 20 to 26° C. and 40 to 70%, respectively, under light for 12 hours and under dark for 12 hours (illumination: 8:00 a.m. to 8:00 p.m.).
Bone marrow cells were collected from the tibia, femur, humerus, and pelvis in each side of each of the mice, and gathered in a mortar. A buffer obtained by adding thermally deactivated bovine serum (manufactured by Gibco) at a final concentration of 2% and EDTA at a final concentration of 2 mM to Ca^2+-free and Mg^2+-free PBS was added, and the resultant was broken with a pestle to obtain a cell population including hematopoietic stem cells.
First, the thus-obtained cell population including hematopoietic stem cells was passed through strainers (meshes) of 100 μm, 70 μm, and 40 μm. The cell population was stained with an APC-binding anti-c-Kit (2B8) and fractionated with anti-APC magnetic beads and an LS column (both manufactured by Miltenyi Biotec) to obtain a cell population enriched with hematopoietic stem cells and progenitor cells.
Subsequently, cells being c-Kit-positive were stained with antibodies for the following cell surface markers.
Staining with the antibodies was performed at 4° C., and the cells were incubated for 30 minutes. For staining with the CD34 antibody, the cells were incubated for 90 minutes. Dead cell staining was performed with SYTOX Red Dead Cell Stain (manufactured by Life Technologies) in accordance with a method recommended by the manufacturer.
Flow cytometry analysis and cell classification (cell sorting) were performed with a FACS Aria II cell sorter (manufactured by BD Biosciences), wherein Lineage-negative, c-Kit-positive, Sca-1-positive, Flk2-negative, CD34-negative or weakly CD34-positive, CD150-positive, and mCherry-positive fractions were regarded as long-term hematopoietic stem cells, and analysis was performed with the software FlowJo (manufactured by Tree Star, Inc.).
The cells after classification were seeded in a 96-well plate. A cell culture medium was prepared by adding Stem Cell Factor (SCF, manufactured by PeproTech, Inc.) and Thrombopoietin (TPO, manufactured by PeproTech, Inc.) to StemSpan SFEM culture medium (manufactured by […] Technologies Inc.) and added in advance to a cell culture 96-well plate (manufactured by BD Biosciences) at 100 μL/well, and the cells sorted with the FACS Aria II cell sorter (BD Biosciences) were then seeded at 10 cells/well.
[…] Thereafter, the cells were cultured in a CO2 incubator under conditions of 37° C. and 5% CO2 for 1 week.
After culture, the cells were stained with the antibodies for the surface markers c-Kit and Sca-1, Ter-119, B220, CD3, CD4, CD8a, Gr-1, and CD11b, and the ratio and post-growth cell count of a KLS fraction (c-Kit^+, Lin^−, Sca-1^+) or an mCherry-positive fraction given with use of a FACS Aria II cell sorter were analyzed by using FlowJo (BD Biosciences). The mCherry-positive fraction is a cell fraction expressing the Hoxb5 gene, and the KLS fraction is a cell fraction being c-Kit-positive, Lin-negative, and Sca-1-positive, and includes hematopoietic stem cells and multipotent progenitor cells as main components. […]

C[C@H]1[C@H](NS(C)(=O)=O)O[C@@H]2O[C@@]3(C)CC[C@H]4[C@H](C)CC[C@@H]1[C@@]24OO3 [Example 1-11, N-[(3R,5aS,6R,8aS,9R,10R,12R,12aR)-3,6,9-Trimethyldecahydro-12H-3,12-epoxypyrano[4,3-j][1,2]benzodioxepin-10-yl]methanesulfonamide]
KLS-positive rate (Table 4, compound 0.1 μM): 13.2%
Viable cell count (Table 4, compound 0.1 μM): 452.5 cell
mCherry-positive rate (Table 4, compound 0.1 μM): 14.3%
KLS-positive rate (Table 4, compound 0.3 μM): 17.6%
Viable cell count (Table 4, compound 0.3 μM): 267.0 cell
mCherry-positive rate (Table 4, compound 0.3 μM): 29.2%
KLS-positive rate (Table 4, compound 1 μM): 26.0%
Viable cell count (Table 4, compound 1 μM): 196.0 cell
mCherry-positive rate (Table 4, compound 1 μM): 60.4%
KLS-positive rate (Table 4, compound 3 μM): 32.4%
Viable cell count (Table 4, compound 3 μM): 31.0 cell
mCherry-positive rate (Table 4, compound 3 μM): 86.2%
KLS-positive rate (Table 4, compound 10 μM): 100.0%
Viable cell count (Table 4, compound 10 μM): 1.5 cell
mCherry-positive rate (Table 4, compound 10 μM): 100.0%

C[C@@H]1CC[C@H]2[C@@H](C)C(=O)O[C@@H]3O[C@@]4(C)CC[C@@H]1[C@]32OO4 [Example 1-33, artemisinin, reference compound]
KLS-positive rate (Table 3, compound 0.1 μM): 33.2%
Viable cell count (Table 3, compound 0.1 μM): 445.5 cell
mCherry-positive rate (Table 3, compound 0.1 μM): 49.25%
KLS-positive rate (Table 3, compound 0.3 μM): 18.2%
Viable cell count (Table 3, compound 0.3 μM): 1020 cell
mCherry-positive rate (Table 3, compound 0.3 μM): 28.15%
KLS-positive rate (Table 3, compound 1 μM): 46.85%
Viable cell count (Table 3, compound 1 μM): 728 cell
mCherry-positive rate (Table 3, compound 1 μM): 60.85%
KLS-positive rate (Table 3, compound 3 μM): 50.8%
Viable cell count (Table 3, compound 3 μM): 229 cell
mCherry-positive rate (Table 3, compound 3 μM): 81.3%
KLS-positive rate (Table 3, compound 10 μM): 52%
Viable cell count (Table 3, compound 10 μM): 282.5 cell
mCherry-positive rate (Table 3, compound 10 μM): 80%
KLS-positive rate (Table 4, compound 0.1 μM): 20.2%
Viable cell count (Table 4, compound 0.1 μM): 268.5 cell
mCherry-positive rate (Table 4, compound 0.1 μM): 28.1%
KLS-positive rate (Table 4, compound 0.3 μM): 11.2%
Viable cell count (Table 4, compound 0.3 μM): 309.5 cell
mCherry-positive rate (Table 4, compound 0.3 μM): 23.5%
KLS-positive rate (Table 4, compound 1 μM): 20.3%
Viable cell count (Table 4, compound 1 μM): 268.0 cell
mCherry-positive rate (Table 4, compound 1 μM): 56.8%
KLS-positive rate (Table 4, compound 3 μM): 26.1%
Viable cell count (Table 4, compound 3 μM): 85.0 cell
mCherry-positive rate (Table 4, compound 3 μM): 81.8%
KLS-positive rate (Table 4, compound 10 μM): 16.1%
Viable cell count (Table 4, compound 10 μM): 178.0 cell
mCherry-positive rate (Table 4, compound 10 μM): 78.8%

CC(=O)OCCOC1O[C@@H]2O[C@@]3(C)CC[C@H]4[C@H](C)CC[C@@H]([C@H]1C)[C@@]24OO3 (stereo in doubt) [Example 1-26, 2-{[(3R,5aS,6R,8aS,9R,10S,12R,12aR)-3,6,9-Trimethyldecahydro-12H-3,12-epoxypyrano[4,3-j][1,2]benzodioxepin-10-yl]oxy}ethyl acetate]
KLS-positive rate (Table 4, compound 0.1 μM): 56.1%
Viable cell count (Table 4, compound 0.1 μM): 13.5 cell
mCherry-positive rate (Table 4, compound 0.1 μM): 80.7%
KLS-positive rate (Table 4, compound 0.3 μM): 68.5%
Viable cell count (Table 4, compound 0.3 μM): 48.5 cell
mCherry-positive rate (Table 4, compound 0.3 μM): 95.0%
KLS-positive rate (Table 4, compound 1 μM): 55.4%
Viable cell count (Table 4, compound 1 μM): 20.0 cell
mCherry-positive rate (Table 4, compound 1 μM): 96.7%
KLS-positive rate (Table 4, compound 3 μM): 26.9%
Viable cell count (Table 4, compound 3 μM): 43.5 cell
mCherry-positive rate (Table 4, compound 3 μM): 100.0%
KLS-positive rate (Table 4, compound 10 μM): 28.9%
Viable cell count (Table 4, compound 10 μM): 30.5 cell
mCherry-positive rate (Table 4, compound 10 μM): 100.0%

C[C@H]1[C@H](N(C)C)O[C@@H]2O[C@@]3(C)CC[C@H]4[C@H](C)CC[C@@H]1[C@@]24OO3 [Example 1-12, (3R,5aS,6R,8aS,9R,10R,12R,12aR)—N,N,3,6,9-Pentamethyldecahydro-12H-3,12-epoxypyrano[4,3-j][1,2]benzodioxepin-10-amine]
KLS-positive rate (Table 4, compound 0.1 μM): 27.2%
Viable cell count (Table 4, compound 0.1 μM): 450.5 cell
mCherry-positive rate (Table 4, compound 0.1 μM): 7.3%
KLS-positive rate (Table 4, compound 0.3 μM): 15.8%
Viable cell count (Table 4, compound 0.3 μM): 262.0 cell
mCherry-positive rate (Table 4, compound 0.3 μM): 15.2%
KLS-positive rate (Table 4, compound 1 μM): 19.3%
Viable cell count (Table 4, compound 1 μM): 431.5 cell
mCherry-positive rate (Table 4, compound 1 μM): 8.2%
KLS-positive rate (Table 4, compound 3 μM): 14.4%
Viable cell count (Table 4, compound 3 μM): 217.0 cell
mCherry-positive rate (Table 4, compound 3 μM): 19.4%
KLS-positive rate (Table 4, compound 10 μM): 36.6%
Viable cell count (Table 4, compound 10 μM): 234.5 cell
mCherry-positive rate (Table 4, compound 10 μM): 12.1%

CC(=O)N[C@@H]1O[C@@H]2O[C@@]3(C)CC[C@H]4[C@H](C)CC[C@@H]([C@H]1C)[C@@]24OO3 [Example 1-10, N-[(3R,5aS,6R,8aS,9R,10R,12R,12aR)-3,6,9-Trimethyldecahydro-12H-3,12-epoxypyrano[4,3-j][1,2]benzodioxepin-10-yl]acetamide]
KLS-positive rate (Table 4, compound 0.1 μM): 19.7%
Viable cell count (Table 4, compound 0.1 μM): 717.5 cell
mCherry-positive rate (Table 4, compound 0.1 μM): 6.5%
KLS-positive rate (Table 4, compound 0.3 μM): 23.1%
Viable cell count (Table 4, compound 0.3 μM): 387.0 cell
mCherry-positive rate (Table 4, compound 0.3 μM): 16.5%
KLS-positive rate (Table 4, compound 1 μM): 32.9%
Viable cell count (Table 4, compound 1 μM): 325.5 cell
mCherry-positive rate (Table 4, compound 1 μM): 9.1%
KLS-positive rate (Table 4, compound 3 μM): 33.1%
Viable cell count (Table 4, compound 3 μM): 579.0 cell
mCherry-positive rate (Table 4, compound 3 μM): 38.5%
KLS-positive rate (Table 4, compound 10 μM): 53.1%
Viable cell count (Table 4, compound 10 μM): 46.5 cell
mCherry-positive rate (Table 4, compound 10 μM): 99.3%

C[C@H]1[C@@H](OC2CCCCC2)O[C@@H]2O[C@@]3(C)CC[C@H]4[C@H](C)CC[C@@H]1[C@@]24OO3 [Example 1-20, (3R,5aS,6R,8aS,9R,10S,12R,12aR)-10-(cyclohexyloxy)-3,6,9-trimethyldecahydro-12H-3,12-epoxypyrano[4,3-j][1,2]benzodioxepine]
KLS-positive rate (Table 4, compound 0.1 μM): 0.0%
Viable cell count (Table 4, compound 0.1 μM): 0.0 cell
mCherry-positive rate (Table 4, compound 0.1 μM): 0.0%
KLS-positive rate (Table 4, compound 0.3 μM): 0.0%
Viable cell count (Table 4, compound 0.3 μM): 0.0 cell
mCherry-positive rate (Table 4, compound 0.3 μM): 0.0%
KLS-positive rate (Table 4, compound 1 μM): 0.0%
Viable cell count (Table 4, compound 1 μM): 1.0 cell
mCherry-positive rate (Table 4, compound 1 μM): 0.0%
KLS-positive rate (Table 4, compound 3 μM): 0.0%
Viable cell count (Table 4, compound 3 μM): 0.5 cell
mCherry-positive rate (Table 4, compound 3 μM): 50.0%
KLS-positive rate (Table 4, compound 10 μM): 0.0%
Viable cell count (Table 4, compound 10 μM): 0.5 cell
mCherry-positive rate (Table 4, compound 10 μM): 50.0%

C[C@H]1[C@H](N2CCOCC2)O[C@@H]2O[C@@]3(C)CC[C@H]4[C@H](C)CC[C@@H]1[C@@]24OO3 [Example 1-13, 4-[(3R,5aS,6R,8aS,9R,10R,12R,12aR)-3,6,9-Trimethyldecahydro-12H-3,12-epoxypyrano[4,3-j][1,2]benzodioxepin-10-yl]morpholine]
KLS-positive rate (Table 4, compound 0.1 μM): 22.1%
Viable cell count (Table 4, compound 0.1 μM): 201.0 cell
mCherry-positive rate (Table 4, compound 0.1 μM): 24.3%
KLS-positive rate (Table 4, compound 0.3 μM): 14.7%
Viable cell count (Table 4, compound 0.3 μM): 605.0 cell
mCherry-positive rate (Table 4, compound 0.3 μM): 2.9%
KLS-positive rate (Table 4, compound 1 μM): 21.0%
Viable cell count (Table 4, compound 1 μM): 136.5 cell
mCherry-positive rate (Table 4, compound 1 μM): 6.7%
KLS-positive rate (Table 4, compound 3 μM): 0.0%
Viable cell count (Table 4, compound 3 μM): 0.0 cell
mCherry-positive rate (Table 4, compound 3 μM): 0.0%
KLS-positive rate (Table 4, compound 10 μM): 0.0%
Viable cell count (Table 4, compound 10 μM): 0.0 cell
mCherry-positive rate (Table 4, compound 10 μM): 0.0%

C[C@H]1[C@H](n2cc(-c3ccccc3)nn2)O[C@@H]2O[C@@]3(C)CC[C@H]4[C@H](C)CC[C@@H]1[C@@]24OO3 [Example 1-9, 4-Phenyl-1-[(3R,5aS,6R,8aS,9R,10R,12R,12aR)-3,6,9-trimethyldecahydro-12H-3,12-epoxypyrano[4,3-j][1,2]benzodioxepin-10-yl]-1H-1,2,3-triazole]
KLS-positive rate (Table 4, compound 0.1 μM): 10.6%
Viable cell count (Table 4, compound 0.1 μM): 627.5 cell
mCherry-positive rate (Table 4, compound 0.1 μM): 5.9%
KLS-positive rate (Table 4, compound 0.3 μM): 31.1%
Viable cell count (Table 4, compound 0.3 μM): 500.0 cell
mCherry-positive rate (Table 4, compound 0.3 μM): 4.5%
KLS-positive rate (Table 4, compound 1 μM): 34.3%
Viable cell count (Table 4, compound 1 μM): 625.0 cell
mCherry-positive rate (Table 4, compound 1 μM): 9.4%
KLS-positive rate (Table 4, compound 3 μM): 14.1%
Viable cell count (Table 4, compound 3 μM): 479.0 cell
mCherry-positive rate (Table 4, compound 3 μM): 8.1%
KLS-positive rate (Table 4, compound 10 μM): 27.1%
Viable cell count (Table 4, compound 10 μM): 491.5 cell
mCherry-positive rate (Table 4, compound 10 μM): 11.4%
